In the OligoGym collection one finds 3 h FOB score data, which are given here for 25 substances.

HELM strings list units from the 5' end as sugar, base in round brackets, then linkage (d deoxyribose, r ribose, m 2'-O-methyl, p phosphodiester). Strings are as the collection lists them; they lack the last nucleoside at the 3' end of the tested compound. [moe] = 2'-O-(2-methoxyethyl) (MOE); [sp] = phosphorothioate linkage; [m5C] = 5-methylcytosine

The target of this data set is GFAP. The data set can be described thus: mouse, dose not given. As to conditions: ASO.
Take “RNA1{[moe]([m5C])[sp].[moe](A)p.[moe](G)p.[moe](T)p.[moe](A)p.d(T)[sp].d(T)[sp].d(A)[sp].d([m5C])[sp].d([m5C])[sp].d(T)[sp].d([m5C])[sp].d(T)[sp].d(A)[sp].d([m5C])[sp].[moe](T)p.[moe](A)p.[moe](G)[sp].[moe](T)}$$$$ (last 3' nucleoside missing)”: the 3 h FOB score came to 0 score 0-7.
“RNA1{[moe](G)[sp].[moe]([m5C])p.[moe](A)p.[moe](G)p.[moe](T)p.[moe](A)p.d(T)[sp].d(T)[sp].d(A)[sp].d([m5C])[sp].d([m5C])[sp].d(T)[sp].d([m5C])[sp].d(T)[sp].d(A)[sp].d([m5C])[sp].[moe](T)p.[moe](A)[sp].[moe](G)}$$$$ (last 3' nucleoside missing)”: the 3 h FOB score was determined as 0 score 0-7.
The figure for “RNA1{[moe](G)[sp].[moe](G)p.[moe](T)p.[moe](G)p.[moe](G)[sp].d(G)[sp].d(T)[sp].d(G)[sp].d([m5C])[sp].d([m5C])[sp].d(G)[sp].d(T)[sp].d([m5C])[sp].d(T)[sp].d(G)[sp].[moe](G)p.[moe]([m5C])p.[moe](A)[sp].[moe](G)}$$$$ (last 3' nucleoside missing)” is 7 score 0-7; for “RNA1{[moe](A)[sp].[moe]([m5C])p.[moe](A)p.[moe](G)p.[moe](T)p.d(T)[sp].d([m5C])[sp].d([m5C])[sp].d([m5C])[sp].d(A)[sp].d(G)[sp].d(A)[sp].d(T)[sp].d(A)[sp].d([m5C])[sp].[moe](T)p.[moe]([m5C])p.[moe]([m5C])[sp].[moe](G)}$$$$ (last 3' nucleoside missing)” it is 2 score 0-7; for “RNA1{[moe](G)[sp].[moe](T)p.[moe](G)p.[moe](G)p.[moe](A)[sp].d(G)[sp].d(G)[sp].d(G)[sp].d([m5C])[sp].d(G)[sp].d(A)[sp].d(T)[sp].d(G)[sp].d(T)[sp].d(A)[sp].[moe](G)p.[moe](T)p.[moe](A)[sp].[moe](G)}$$$$ (last 3' nucleoside missing)” it is 7 score 0-7.
“RNA1{[moe](T)[sp].[moe](T)p.[moe](G)p.[moe](G)p.[moe](T)p.d(G)[sp].d([m5C])[sp].d(T)[sp].d(T)[sp].d(T)[sp].d(T)[sp].d(G)[sp].d([m5C])[sp].d([m5C])[sp].d([m5C])[sp].[moe]([m5C])p.[moe]([m5C])p.[moe](T)[sp].[moe](G)}$$$$ (last 3' nucleoside missing)” showed a 3 h FOB score of 0 score 0-7.
“RNA1{[moe]([m5C])[sp].[moe](T)p.[moe](G)p.[moe]([m5C])p.[moe]([m5C])p.[moe](A)p.d(T)[sp].d(T)[sp].d(T)[sp].d(A)[sp].d(T)[sp].d([m5C])[sp].d(T)[sp].d(G)[sp].d(T)[sp].d(G)[sp].[moe]([m5C])p.[moe](T)[sp].[moe](T)}$$$$ (last 3' nucleoside missing)” gave a 3 h FOB score of 1 score 0-7.
The same measure for “RNA1{[moe]([m5C])[sp].[moe](T)p.[moe]([m5C])p.[moe]([m5C])p.[moe](T)[sp].d(G)[sp].d(T)[sp].d(T)[sp].d(T)[sp].d([m5C])[sp].d(A)[sp].d(G)[sp].d([m5C])[sp].d(A)[sp].d(T)[sp].[moe]([m5C])p.[moe](T)p.[moe](T)[sp].[moe]([m5C])}$$$$ (last 3' nucleoside missing)”: 2 score 0-7; for “RNA1{[moe](A)[sp].[moe]([m5C])p.[moe]([m5C])p.[moe](T)p.[moe]([m5C])[sp].d([m5C])[sp].d(A)[sp].d(T)[sp].d([m5C])[sp].d(T)[sp].d([m5C])[sp].d(T)[sp].d(G)[sp].d(G)[sp].d([m5C])[sp].[moe](A)p.[moe](A)p.[moe]([m5C])[sp].[moe](A)}$$$$ (last 3' nucleoside missing)”: 6 score 0-7.
The figure for “RNA1{[moe](T)[sp].[moe](T)p.[moe](G)p.[moe](A)p.[moe](G)p.d(A)[sp].d(T)[sp].d(A)[sp].d(T)[sp].d([m5C])[sp].d(T)[sp].d(T)[sp].d(G)[sp].d(T)[sp].d(G)[sp].[moe](A)p.[moe]([m5C])p.[moe]([m5C])[sp].[moe](T)}$$$$ (last 3' nucleoside missing)” is 3 score 0-7.
The figure for “RNA1{[moe](G)[sp].[moe](T)p.[moe](G)p.[moe](A)p.[moe](T)[sp].d(T)[sp].d(T)[sp].d(T)[sp].d([m5C])[sp].d([m5C])[sp].d([m5C])[sp].d([m5C])[sp].d(G)[sp].[moe](T)p.[moe]([m5C])p.[moe](T)[sp].[moe](T)}$$$$ (last 3' nucleoside missing)” is 0 score 0-7; for “RNA1{[moe](T)[sp].[moe]([m5C])p.[moe]([m5C])p.[moe](T)p.[moe](G)[sp].d([m5C])[sp].d([m5C])[sp].d(T)[sp].d([m5C])[sp].d(A)[sp].d([m5C])[sp].d(A)[sp].d(T)[sp].d([m5C])[sp].d(A)[sp].[moe]([m5C])p.[moe](A)p.[moe](T)[sp].[moe]([m5C])}$$$$ (last 3' nucleoside missing)” it is 0 score 0-7; for “RNA1{[moe](G)[sp].[moe](T)p.[moe](G)p.[moe]([m5C])p.d(T)[sp].d(T)[sp].d(T)[sp].d(T)[sp].d(G)[sp].d([m5C])[sp].d([m5C])[sp].d([m5C])[sp].d([m5C])[sp].d([m5C])[sp].[moe](T)p.[moe](G)p.[moe](T)p.[moe](A)[sp].[moe](G)}$$$$ (last 3' nucleoside missing)” it is 3 score 0-7.
The substance “RNA1{[moe]([m5C])[sp].[moe](G)p.[moe](T)p.[moe]([m5C])p.[moe](A)p.[moe]([m5C])p.d(A)[sp].d(T)[sp].d(T)[sp].d([m5C])[sp].d(A)[sp].d([m5C])[sp].d(T)[sp].d(A)[sp].d(A)[sp].d(T)[sp].[moe](A)p.[moe](T)[sp].[moe](T)}$$$$ (last 3' nucleoside missing)” came in with a 3 h FOB score of 0 score 0-7.
The figure for “RNA1{[moe](T)[sp].[moe](T)p.[moe](T)p.[moe](G)p.[moe](G)p.[moe]([m5C])p.d(A)[sp].d(G)[sp].d(T)[sp].d(A)[sp].d(T)[sp].d(T)[sp].d(A)[sp].d([m5C])[sp].d([m5C])[sp].d(T)[sp].[moe]([m5C])p.[moe](T)[sp].[moe](A)}$$$$ (last 3' nucleoside missing)” is 0 score 0-7; for “RNA1{[moe](A)[sp].[moe]([m5C])p.[moe](T)p.[moe](A)p.[moe](T)[sp].d([m5C])[sp].d(T)[sp].d(A)[sp].d(G)[sp].d(G)[sp].d(A)[sp].d(T)[sp].d(T)[sp].[moe](T)p.[moe](G)p.[moe](G)[sp].[moe]([m5C])}$$$$ (last 3' nucleoside missing)” it is 4 score 0-7.
The same measure for “RNA1{[moe]([m5C])[sp].[moe](T)p.[moe]([m5C])p.[moe](T)p.[moe](G)p.d([m5C])[sp].d([m5C])[sp].d(A)[sp].d(T)[sp].d(T)[sp].d(T)[sp].d(A)[sp].d(T)[sp].d([m5C])[sp].d(T)[sp].[moe](G)p.[moe](T)p.[moe](G)[sp].[moe]([m5C])}$$$$ (last 3' nucleoside missing)”: 0 score 0-7; for “RNA1{[moe]([m5C])[sp].[moe]([m5C])p.[moe](A)p.[moe](T)p.[moe](T)[sp].d(T)[sp].d(A)[sp].d(T)[sp].d([m5C])[sp].d(T)[sp].d(G)[sp].d(T)[sp].d(G)[sp].[moe]([m5C])p.[moe](T)p.[moe](T)[sp].[moe](T)}$$$$ (last 3' nucleoside missing)”: 4 score 0-7; for “RNA1{[moe](A)[sp].[moe](G)p.[moe](T)p.[moe](G)p.[moe](A)[sp].d([m5C])[sp].d([m5C])[sp].d(T)[sp].d(G)[sp].d(T)[sp].d(G)[sp].d(A)[sp].d([m5C])[sp].d(T)[sp].d(A)[sp].[moe](T)p.[moe]([m5C])p.[moe](T)[sp].[moe](A)}$$$$ (last 3' nucleoside missing)”: 6 score 0-7.
On to “RNA1{[moe](A)[sp].[moe]([m5C])p.[moe](T)p.[moe](A)p.[moe](G)p.[moe](T)p.d([m5C])[sp].d(A)[sp].d(G)[sp].d([m5C])[sp].d([m5C])[sp].d(T)[sp].d(G)[sp].d(G)[sp].d(T)[sp].d(T)[sp].[moe](A)p.[moe](G)[sp].[moe]([m5C])}$$$$ (last 3' nucleoside missing)”, for which the 3 h FOB score was 4 score 0-7.
Substance “RNA1{[moe](G)[sp].[moe]([m5C])p.[moe](T)p.[moe](T)p.[moe](T)p.[moe](T)p.d(G)[sp].d([m5C])[sp].d([m5C])[sp].d([m5C])[sp].d([m5C])[sp].d([m5C])[sp].d(T)[sp].d(G)[sp].d(T)[sp].d(A)[sp].[moe](G)p.[moe](T)[sp].[moe](G)}$$$$ (last 3' nucleoside missing)” gave a 3 h FOB score of 3 score 0-7.
With “RNA1{[moe](T)[sp].[moe](G)p.[moe](G)p.[moe](T)p.[moe](G)p.d([m5C])[sp].d(T)[sp].d(T)[sp].d(T)[sp].d(T)[sp].d(G)[sp].d([m5C])[sp].d([m5C])[sp].d([m5C])[sp].d([m5C])[sp].[moe]([m5C])p.[moe](T)p.[moe](G)[sp].[moe](T)}$$$$ (last 3' nucleoside missing)”, the 3 h FOB score amounted to 0 score 0-7.
The same measure for “RNA1{[moe](G)[sp].[moe](T)p.[moe]([m5C])p.[moe](A)p.[moe](G)p.d([m5C])[sp].d([m5C])[sp].d(T)[sp].d(G)[sp].d(G)[sp].d(T)[sp].d(T)[sp].d(A)[sp].d(G)[sp].d([m5C])[sp].[moe]([m5C])p.[moe](T)p.[moe](T)[sp].[moe](T)}$$$$ (last 3' nucleoside missing)”: 5 score 0-7; for “RNA1{[moe](T)[sp].[moe](T)p.[moe](T)p.[moe](G)p.d(G)[sp].d([m5C])[sp].d(A)[sp].d(G)[sp].d(T)[sp].d(A)[sp].d(T)[sp].d(T)[sp].d(A)[sp].d([m5C])[sp].[moe]([m5C])p.[moe](T)p.[moe]([m5C])p.[moe](T)[sp].[moe](A)}$$$$ (last 3' nucleoside missing)”: 1 score 0-7.
The figure for “RNA1{[moe](G)[sp].[moe](A)p.[moe](G)p.[moe](T)p.[moe]([m5C])[sp].d(T)[sp].d([m5C])[sp].d(A)[sp].d(G)[sp].d(T)[sp].d(T)[sp].d(T)[sp].d(T)[sp].d([m5C])[sp].d([m5C])[sp].[moe](T)p.[moe]([m5C])p.[moe]([m5C])[sp].[moe](A)}$$$$ (last 3' nucleoside missing)” is 4 score 0-7.
